Assay results reported in patent publication US7968601B2, “Adamantyl acetamides as 11-β hydroxysteroid dehydrogenase inhibitors” (Janssen Pharmaceutica N.V., priority 2002, dated 2011).

How the values were obtained:
[1] = biological target: T1, 11b-HSD1 (Mus musculus, UniProt P50172); assay: Cellular assay, 11b-HSD1 activity in differentiated 3T3-L1 cells; assay type: cell-based; settings: 4 hour pre-incubation; for IC50: pIC50 scored 1-3, read-out: [C2] HSD1 cellular 3T3-L1 Score
T1 construct: endogenous in cells; host or cells: 3T3-L1 (ATCC-CL-173), differentiated into adipocytes
Protocol: The effects on 11b-HSD1 activity was measured in differentiated 3T3-L1 cells and rat hepatocytes.
Mouse fibroblast 3T3-L1 cells (ATCC-CL-173) were seeded at a density of 16500 cells/ml in 12 well plates and grown for 7 days in DMEM medium (supplemented with 10% heat inactivated foetal calf serum, 2 mM glutamine and 25 mg gentamycin) at 37 C in a humidified 5% CO2 atmosphere. Medium was refreshed twice a week. Fibroblasts were differentiated into adipocytes at 37 C in a 5% CO2 humidified atmosphere in growth medium containing 2 μg/ml insulin, 55 μg/ml IBMX and 39.2 μg/ml dexamethasone.
Following a 4 hour pre-incubation with test compound, 0.5 μCi ^3H-cortisone or dehydrocorticosterone, was added to the cultures. One hour later, the medium was extracted on Extrelut^3-columns with 15 ml diethyl ether and the extract was analysed by HPLC as described above.
(§1) As for the enzymatic assays, the compounds to be tested were taken from a stock solution and tested at a final concentration ranging from […] to 3.10^−9M. From the thus obtained dose response curves, the pIC50 value was calculated and scored as follows; Score 1=pIC50 value<5, Score 2=pIC50 value in the range of 5 to 6, Score 3=pIC50 value>6. (in this table NT stands for Not Tested).

[2] = biological target: T2, 11b-HSD2 (Homo sapiens, UniProt P80365); assay: Cellular assay, 11b-HSD2 activity in HepG2 cells; assay type: cell-based; parameters: endogenous in cells; host or cells: HepG2 (ATCC HB-8065); settings: 4 hour pre-incubation; for IC50: pIC50 scored 1-3, read-out: [C2] HSD2 cellular HepG2 Score
T2 sequence (P80365 1-405): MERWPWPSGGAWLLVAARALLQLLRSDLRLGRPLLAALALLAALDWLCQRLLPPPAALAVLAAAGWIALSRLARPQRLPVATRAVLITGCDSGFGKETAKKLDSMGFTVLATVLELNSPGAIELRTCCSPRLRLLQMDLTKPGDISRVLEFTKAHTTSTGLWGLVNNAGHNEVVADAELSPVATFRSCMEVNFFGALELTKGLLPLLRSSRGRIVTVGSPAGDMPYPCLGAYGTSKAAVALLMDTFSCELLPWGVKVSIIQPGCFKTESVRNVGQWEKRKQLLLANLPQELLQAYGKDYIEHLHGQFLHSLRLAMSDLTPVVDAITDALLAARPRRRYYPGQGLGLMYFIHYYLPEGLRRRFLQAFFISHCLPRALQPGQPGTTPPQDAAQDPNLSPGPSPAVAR
Protocol: The effects on 11b-HSD2 activity was studied in HepG2 and LCC-PK1-cells HepG2-cells (ATCC HB-8065) were seeded in 12 well plates at a density of 100,000 cells/ml and grown at 37 C in a humidified 5% CO2 atmosphere in MEM-Rega-3 medium supplemented with 10% heat inactivated foetal calf serum, 2 mM L-glutamine and sodium bicarbonate). Medium was refreshed twice a week. Pig kidney cells (LCC-PK1, ATCC CRL-1392) were seeded at a density of 150,000 cells/ml in 12 well plates and grown at 37 C in a humidified 5% CO2 atmosphere in Medium 199 supplemented with Earls modified salt solution, 100 U/ml penicillin, 100 μg/ml streptomycin and 10% foetal calf serum. Medium was refreshed twice a week. Twenty four hours prior to the onset of the experiment, medium was changed by medium containing 10% charcoal stripped foetal calf serum.
Following a 4 hour pre-incubation with test compound, 0.5 μCi ^3H-cortisol or corticosterone, was added to the cultures. One hour later, the medium was extracted on Extrelut^3-columns with 15 ml diethyl ether and the extract was analysed by HPLC as described above.
as §1

[3] = biological target: 11b-HSD1 (Homo sapiens, UniProt P28845); assay: Enzymatic assay, 11b-HSD1 reductase activity (conversion of cortisone into cortisol); assay type: biochemical; settings: pIC50 scored 1-3, read-out: [C1] HSD1-prot Reduct Score
Protocol: The effects of compounds on 11b-HSD1 dependent conversion of cortisone into cortisol (reductase activity) was studied in a reaction mixture containing 30 mM Tris-HCl buffer pH 7.2, 180 μM NADPH, 1 mM EDTA, 2 μM cortisone, 1 μl drug and/or solvent and 11 μg recombinant protein in a final volume of 100 μl.
(§2) All incubations were performed for 45 min at 37 C in a water bath. The reaction was stopped by adding 100 μl acetonitrile containing 20 μg corticosterone as internal standard. After centrifugation, the product formation was analysed in the supernatant by HPLC on a Hypersyl BDS-C18 column using 0.05 mM ammonium acetate/methanol (50/50) as solvent. In all of the aforementioned assays, the drugs to be tested were taken from a stock solution and tested at a final concentration ranging from […] to 3.10^−9M. From the thus obtained dose response curves, the pIC50 value was calculated and scored as follows; Score 1=pIC50 value<5, Score 2=pIC50 value in the range of 5 to 6, Score 3=pIC50 value>6. (in this table NT stands for Not Tested).

[4] = biological target: T2, 11b-HSD2; assay: Enzymatic assay, 11b-HSD2 dependent dehydrogenase activity; assay type: biochemical; settings: 11b-HSD2 dehydrogenase activity, pIC50 scored 1-3, read-out: [C1] HSD2 prot Dehydro Score
Protocol: The effects on the 11b-HSD2 dependent dehydrogenase activity was studied in a reaction mixture containing 0.1M sodium phosphate buffer pH 7.5, 300 μM NAD, 100 nM cortisol (of which 2 nM is 3H-radio labelled), 1 μl drug and/or solvent and 2.5 μg recombinant protein in a final volume of 100 μl.
as §2

T1 sequence (P50172 whole entry): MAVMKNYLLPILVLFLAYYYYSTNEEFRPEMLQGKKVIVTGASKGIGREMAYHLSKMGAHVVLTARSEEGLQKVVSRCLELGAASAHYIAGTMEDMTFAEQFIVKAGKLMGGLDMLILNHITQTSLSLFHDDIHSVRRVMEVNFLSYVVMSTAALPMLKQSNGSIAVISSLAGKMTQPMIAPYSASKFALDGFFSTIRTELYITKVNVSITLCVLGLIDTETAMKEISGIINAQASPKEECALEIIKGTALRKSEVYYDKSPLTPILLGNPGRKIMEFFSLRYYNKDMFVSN
Sequence of 11b-HSD1 (Homo sapiens, UniProt P28845) (P28845 whole entry): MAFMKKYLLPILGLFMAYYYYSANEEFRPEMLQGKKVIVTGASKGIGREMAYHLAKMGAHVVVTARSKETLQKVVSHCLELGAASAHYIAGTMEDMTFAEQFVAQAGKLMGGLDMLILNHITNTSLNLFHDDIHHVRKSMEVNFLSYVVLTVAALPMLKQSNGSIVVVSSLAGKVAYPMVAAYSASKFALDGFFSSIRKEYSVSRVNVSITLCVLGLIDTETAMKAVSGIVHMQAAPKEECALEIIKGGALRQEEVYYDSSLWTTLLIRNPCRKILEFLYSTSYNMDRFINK

Row | Compound | IC50 [1] [µM] | IC50 [2] [µM] | IC50 [3] [µM] | IC50 [4] [µM] | [C2] HSD1 cellular 3T3-L1 Score ([1]; pIC50 scored 1-3) | [C2] HSD2 cellular HepG2 Score ([2]; pIC50 scored 1-3)
1 | O=C(NC1C2CC3CC(C2)CC1C3)C1CCc2ccccc2C1 (stereo not shown) [Compound 224] | < 1 | > 10 | < 1 | > 10 | – | –
2 | CC1C(NC(=O)C2(c3ccccc3)CC2)CC2CC1C2(C)C (stereo not shown) [Compound 56] | 1 to 10 | > 10 | – | > 10 | – | –
3 | COc1ccc(OC)c(C(C)(C)C(=O)NC2C3CC4CC(C3)CC2C4)c1 (stereo not shown) [Compound 93] | < 1 | > 10 | < 1 | – | – | –
4 | O=C(NC1CC2CCC1C2)C1(c2ccccc2)CC1 (stereo not shown) [Compound 64] | 1 to 10 | > 10 | – | > 10 | – | –
5 | CC(C)(C(=O)NC1C2CC3CC(C2)CC1C3)c1ccc(Cl)cc1 (stereo not shown) [Compound 1] | < 1 | > 10 | – | > 10 | – | –
6 | COC12CC3CC(C1)C(NC(=O)C(C)(C)c1ccccc1)C(C3)C2 (stereo not shown) [Compound 109] | < 1 | > 10 | < 1 | – | – | –
7 | O=C(NC1C2CC3CC(C2)CC1C3)[C@H]1Cc2ccccc2CN1 (stereo partly shown) [Compound 255] | < 1 | > 10 | – | > 10 | – | –
8 | CCC(C(=O)NC1C2CC3CC(C2)CC1C3)c1ccccc1 (stereo not shown) [Compound 29] | < 1 | > 10 | – | – | – | –
9 | CC1(C)C2CCC1(C)C(NC(=O)C1(c3ccccc3)CCCC1)C2 (stereo not shown) [Compound 57] | 1 to 10 | > 10 | – | > 10 | – | –
10 | O=C(NC1CC2CCC1C2)C1(c2ccccc2)CCCC1 (stereo not shown) [Compound 22] | 1 to 10 | > 10 | – | > 10 | – | –
11 | CC1(C)C2CCC1(C)C(NC(=O)C1(c3ccccc3)CC1)C2 (stereo not shown) [Compound 55] | < 1 | > 10 | – | > 10 | – | –
12 | CC(C)(C(=O)NC1C2CC3CC(C2)CC1C3)c1cccc(OCCN2CCCC2)c1 (stereo not shown) [Compound 71] | < 1 | > 10 | < 1 | – | – | –
13 | Cc1cc(C)cc(C(C)(C)C(=O)NC2C3CC4CC(C3)CC2C4)c1 (stereo not shown) [Compound 3] | < 1 | > 10 | < 1 | – | – | –
14 | CN(Cc1ccccc1)c1ccc(C(C)(C)C(=O)NC2C3CC4CC(C3)CC2C4)cc1 (stereo not shown) [Compound 81] | 1 to 10 | > 10 | < 1 | – | – | –
15 | CC(C(=O)NC1C2CC3CC(C2)CC1C3)c1ccccc1 (stereo not shown) [Compound 28] | < 1 | > 10 | – | – | – | –
16 | CC1CCCCC1NC(=O)C1(c2ccccc2)CC1 (stereo not shown) [Compound 19] | 1 to 10 | > 10 | – | > 10 | – | –
17 | O=C(NC1C2CC3CC(C2)CC1C3)C1CCc2ccccc2N1 (stereo not shown) [Compound 253] | < 1 | > 10 | – | > 10 | – | –
18 | CC(C)(C(=O)NC1C2CC3CC(C2)CC1C3)c1ccc(Cl)cc1Cl (stereo not shown) [Compound 106] | < 1 | > 10 | > 10 | – | – | –
19 | O=C(NC12CC3CC(CC(C3)C1)C2)C1(c2ccccc2)CCC1 [Compound 16] | 1 to 10 | > 10 | – | > 10 | – | –
20 | CC(C)(C(=O)NC1C2CC3CC(C2)CC1C3)c1cc(F)cc(F)c1 (stereo not shown) [Compound 95] | < 1 | > 10 | > 10 | – | – | –
21 | CN(C)CCOc1cccc(C(C)(C)C(=O)NC2C3CC4CC(C3)CC2C4)c1 (stereo not shown) [Compound 7] | < 1 | > 10 | > 10 | – | – | –
22 | O=C(Cc1ccccc1)NC1C2CC3CC(C2)CC1C3 (stereo not shown) [Compound 30] | < 1 | > 10 | – | – | – | –
23 | O=C(NCC12CC3CC(CC(C3)C1)C2)C1(c2ccccc2)CC1 [Compound 31] | < 1 | > 10 | – | > 10 | – | –
24 | O=C(NCC12CC3CC(CC(C3)C1)C2)C1(c2ccccc2)CCCC1 [Compound 35] | 1 to 10 | > 10 | – | > 10 | – | –
25 | COc1ccc(OC)c(C(C)(C)C(=O)NC2C3CC4CC(C3)CC2C4)c1 (stereo not shown) [Compound 154] | – | – | > 10 | – | 3 (Score 3=pIC50 value>6) | 1 (Score 1=pIC50 value<5)
